From patent US20210255193A1, “LYSINE REACTIVE PROBES AND USES THEREOF” (The Scripps Research Institute, priority 2017, published 2021)
One block for each molecule: values may come before it.

How the values were obtained:
Experiment in all cases: competitive isoTOP-ABPP
Type in all cases: binding
[1] = target: T1, PSME3 Proteasome activator complex subunit 3 (Homo sapiens, UniProt P61289); parameters: key to isoTOP-ABPP reactivity ratio at lysine P61289_K237: R = MS1 peak area ratio, DMSO (heavy) / compound-treated (light); key to isoTOP-ABPP reactivity ratio at lysine P61289_K12: R = MS1 peak area ratio, DMSO (heavy) / compound-treated (light); capped at 20; conditions: for R value (DMSO/fragment) for probe 1 labeling / isoTOP-ABPP reactivity ratio at lysine P61289_K12 / isoTOP-ABPP reactivity ratio at lysine P61289_K237: 231 sol
T1 construct: isoTOP-ABPP experiments performed in cell lysates (in vitro); endogenous in cells; host or cells: soluble proteome of human cancer cell lines (MDA-MB-231, Ramos, Jurkat)
T1 sequence (P61289 whole entry, the tested form may be a part, one chain of several): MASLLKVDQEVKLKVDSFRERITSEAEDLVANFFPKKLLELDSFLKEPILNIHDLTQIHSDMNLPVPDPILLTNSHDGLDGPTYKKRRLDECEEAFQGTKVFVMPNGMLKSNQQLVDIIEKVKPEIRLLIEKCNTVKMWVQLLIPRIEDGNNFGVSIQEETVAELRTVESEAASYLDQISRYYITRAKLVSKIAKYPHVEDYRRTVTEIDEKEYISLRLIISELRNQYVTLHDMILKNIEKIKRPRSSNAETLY
Protocol: (§1) In vitro covalent fragment treatment for isoTOP-ABPP. All compounds were made up as solutions in DMSO (100×) and were used at a final concentration of 50 μM for activated esters and 100 μM for guanidinylating agents. For each profiling sample, 0.5 ml of lysate was treated with 5 μl of the 100× compound stock solution or 5 μl of DMSO. Samples were treated with activated esters for
(§2) STP-alkyne labeling and click chemistry. For concentration-dependent reactivity measurements by isoTOP-ABPP, 0.5 ml proteome aliquots were treated at ambient temperature with 1 mM STP-alkyne 1 (5 μl of 100 mM stock in DMSO) and 0.1 mM STP alkyne 1 (5 μl of 10 mM stock in DMSO), respectively. For competitive isoTOP-ABPP, after in vitro fragment treatment (detailed above), the samples were labeled for 1 h at ambient temperature with 0.1 mM STP-alkyne 1 (5 μl of 10 mM stock in DMSO). Samples were conjugated by copper-mediated azide-alkyne cycloaddition (CuAAC) to either the light (1 mM STP-alkyne or fragment treated) or heavy (0.1 mM STP-alkyne or DMSO treated) TEV tags (10 μl of 5 mM stocks in DMSO, final concentration=100 μM) using tris(2-carboxyethyl)phosphine hydrochloride
(§3) R value calculation and processing. The ratios of light and heavy MS1 peaks for each unique peptide were quantified with a CIMAGE software using default parameters (3 MS1 acquisitions per peak and signal to noise threshold set to 2.5). For reactivity measurements by isoTOP-ABPP, the R value was calculated from the ratio of MS1 peak areas, comparing the 1 mM STP alkyne sample (light TEV tag) with the 0.1 mM STP alkyne sample (heavy TEV tag). For competitive isoTOP-ABPP, the R value was calculated from the ratio of MS1 peak areas, comparing the DMSO treated sample (heavy TEV tag) with the compound treated sample (light TEV tag). […] Ratios for unique peptide entries are calculated for each experiment; overlapping peptides with the same modified lysine (for example, different charge states, MudPIT chromatographic steps or tryptic termini) are grouped together and the median ratio is reported as the final ratio (R). The peptide ratios reported by CIMAGE were further filtered to ensure the removal or correction of low-quality ratios in each individual data set. The quality filters applied were the following: removal of half tryptic peptides; for ratios with high standard deviations from the median (90% of the median or above) the lowest ratio was taken instead of the median; removal of peptides with R=20 and only a single MS2 event triggered during the elution of the parent ion; manual annotation of all the peptides with ratios of 20, removing any peptides with low quality elution profiles that remained after the previous curation steps (only done for competitive isoTOP-ABPP).
(§4) Cross-data processing for fragment screening. For compound treated samples, biological replicates of the same condition were averaged, if the standard deviation was below 60% of the mean; otherwise, for lysines with at least one R value <4 for a particular compound, the lowest value of the ratio set was taken. For lysines, where all R values for a particular compound were ≥4, the average was reported. For peptides containing several possible modified lysines, the lysine with the highest number of quantification events was used for analysis and the remaining, redundant peptides were reported as alternative modification sites. Peptides included in the aggregate dataset (those used for further bioinformatics and statistical analyses) were required to have been quantified in 2 experiments for competitive isoTOP-ABPP. Lysines were categorized as liganded, if they had at least one ratio R≥4 (hit fragments). For liganded lysines with R=20 for all liganding events, lysines were required to have been quantified with R=20 in two separate experiments and were further required to have been quantified with R<20 in one additional experiment.

[2] = target: T2, ECH1 Delta(3,5)-Delta(2,4)-dienoyl-CoA isomerase, mitochondrial (Homo sapiens, UniProt Q13011); parameters: key to isoTOP-ABPP reactivity ratio at lysine Q13011_K112: R = MS1 peak area ratio, DMSO (heavy) / compound-treated (light); capped at 20; conditions: for isoTOP-ABPP ratio (R) at liganded lysine Q13011_K112: sol, 231
T2 construct: isoTOP-ABPP experiments performed in cell lysates (in vitro); endogenous in cells; host or cells: soluble proteome of human cancer cell lines (MDA-MB-231, Ramos, Jurkat)
T2 sequence (Q13011 34-328): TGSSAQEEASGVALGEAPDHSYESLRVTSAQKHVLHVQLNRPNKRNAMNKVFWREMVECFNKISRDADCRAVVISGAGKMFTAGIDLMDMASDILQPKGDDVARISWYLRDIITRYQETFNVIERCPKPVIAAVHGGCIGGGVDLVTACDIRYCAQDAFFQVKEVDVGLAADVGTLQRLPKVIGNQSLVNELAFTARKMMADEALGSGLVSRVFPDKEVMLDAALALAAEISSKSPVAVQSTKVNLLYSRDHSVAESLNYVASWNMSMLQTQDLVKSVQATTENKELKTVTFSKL
Protocol: as §1, §2, §3, §4

[3] = target: T3, TPD52L2 Tumor protein D54 (Homo sapiens, UniProt O43399); parameters: key to isoTOP-ABPP reactivity ratio at lysine O43399_K90: R = MS1 peak area ratio, DMSO (heavy) / compound-treated (light); conditions: for isoTOP-ABPP ratio (R) at liganded lysine O43399_K90: sol, 231
T3 construct: isoTOP-ABPP experiments performed in cell lysates (in vitro); endogenous in cells; host or cells: MDA-MB-231 soluble lysate
T3 sequence (O43399 whole entry): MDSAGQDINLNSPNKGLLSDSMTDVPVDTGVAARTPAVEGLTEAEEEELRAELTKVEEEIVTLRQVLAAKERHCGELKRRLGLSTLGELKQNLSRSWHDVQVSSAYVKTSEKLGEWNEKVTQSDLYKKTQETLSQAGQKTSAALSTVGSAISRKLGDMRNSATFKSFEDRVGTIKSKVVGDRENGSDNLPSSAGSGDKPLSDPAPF
Protocol: as §1, §2, §3, §4

[4] = target: T4, SRP54 Signal recognition particle 54 kDa protein (Homo sapiens, UniProt P61011); parameters: key to isoTOP-ABPP reactivity ratio at lysine P61011_K81: R = MS1 peak area ratio, DMSO (heavy) / compound-treated (light); capped at 20; conditions: for isoTOP-ABPP ratio (R) at liganded lysine P61011_K81: sol, 231
T4 construct: isoTOP-ABPP experiments performed in cell lysates (in vitro); endogenous in cells; host or cells: soluble proteome of human cancer cell lines (MDA-MB-231, Ramos, Jurkat)
T4 sequence (P61011 whole entry): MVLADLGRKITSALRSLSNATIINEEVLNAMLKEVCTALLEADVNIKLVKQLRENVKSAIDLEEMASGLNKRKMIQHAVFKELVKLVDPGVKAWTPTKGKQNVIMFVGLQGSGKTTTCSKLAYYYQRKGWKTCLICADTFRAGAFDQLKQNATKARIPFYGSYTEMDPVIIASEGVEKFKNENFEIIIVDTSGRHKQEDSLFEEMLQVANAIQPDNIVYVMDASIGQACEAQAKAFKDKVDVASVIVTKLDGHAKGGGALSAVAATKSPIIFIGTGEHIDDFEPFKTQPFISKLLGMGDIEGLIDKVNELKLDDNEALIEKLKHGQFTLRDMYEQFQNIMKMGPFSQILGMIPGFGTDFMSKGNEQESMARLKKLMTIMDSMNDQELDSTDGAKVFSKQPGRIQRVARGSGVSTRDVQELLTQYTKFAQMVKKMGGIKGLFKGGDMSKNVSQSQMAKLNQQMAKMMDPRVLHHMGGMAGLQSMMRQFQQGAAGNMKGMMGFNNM
Protocol: as §1, §2, §3, §4

R value (DMSO/fragment) for probe 1 labeling ([1]; P61289_K12, 50 uM, in vitro): 1.0
R value (DMSO/fragment) for probe 1 labeling ([1]; P61289_K237, 50 uM, in vitro): 0.9
R value (DMSO/fragment) for probe 1 labeling ([2]; Q13011_K112, 50 uM, 231 sol, in vitro): 1.5
R value (DMSO/fragment) for probe 1 labeling ([3]; O43399_K90, 50 uM, 231 sol, in vitro): 2.0
R value (DMSO/fragment) for probe 1 labeling ([4]; P61011_K81, 50 uM, 231 sol, in vitro): 0.7
Compound: O=C(Oc1c(F)c(F)c(F)c(F)c1F)c1cc(C(F)(F)F)cc(C(F)(F)F)c1 [fragment 21, Pentafluorophenyl 3,5-bis(trifluoromethyl)benzoate]

Compound: Cn1cc(CC(=O)Oc2ccc([N+](=O)[O-])cc2[N+](=O)[O-])c2ccccc21 [fragment 32, 2,4-Dinitrophenyl 2-(1-methyl-1H-indol-3-yl)acetate]
isoTOP-ABPP reactivity ratio at lysine P61289_K12 ([1]; 50 uM, in vitro): 4.7
isoTOP-ABPP reactivity ratio at lysine P61289_K237 ([1]; 50 uM, in vitro): 5.1
isoTOP-ABPP reactivity ratio at lysine Q13011_K112 ([2]; 50 uM, 231 sol, in vitro): 1.0
isoTOP-ABPP reactivity ratio at lysine O43399_K90 ([3]; 50 uM, 231 sol, in vitro): 2.7
isoTOP-ABPP reactivity ratio at lysine P61011_K81 ([4]; 50 uM, 231 sol, in vitro): 20.0

Compound: O=C(CCc1cn(-c2ccccc2)nc1-c1ccccc1)Oc1ccc([N+](=O)[O-])cc1[N+](=O)[O-] [fragment 29, 2,4-Dinitrophenyl 3-(1,3-diphenyl-1H-pyrazol-4-yl)propanoate]
isoTOP-ABPP reactivity ratio at lysine P61289_K12 ([1]; 50 uM, in vitro): 1.1
isoTOP-ABPP reactivity ratio at lysine P61289_K237 ([1]; 50 uM, in vitro): 0.4
isoTOP-ABPP reactivity ratio at lysine Q13011_K112 ([2]; 50 uM, 231 sol, in vitro): 1.0
isoTOP-ABPP reactivity ratio at lysine O43399_K90 ([3]; 50 uM, 231 sol, in vitro): 3.1
isoTOP-ABPP reactivity ratio at lysine P61011_K81 ([4]; 50 uM, 231 sol, in vitro): 1.1

isoTOP-ABPP ratio, lysine P61289_K237 ([1]; 50 uM_231_sol_in vitro): 0.7
isoTOP-ABPP ratio, lysine Q13011_K112 ([2]; 50 uM_231_sol_in vitro): 1.0
isoTOP-ABPP ratio, lysine O43399_K90 ([3]; 50 uM_231_sol_in vitro): 1.0
isoTOP-ABPP ratio, lysine P61011_K81 ([4]; 50 uM_231_sol_in vitro): 0.7
Compound: NC(=O)c1cc(C(F)(F)F)cc(C(F)(F)F)c1 [fragment 51, reference compound]

Compound: O=C(Oc1ccc([N+](=O)[O-])cc1[N+](=O)[O-])C1CCN(C(=O)OCc2ccccc2)CC1 [fragment 34, 1-Benzyl 4-(2,4-dinitrophenyl) piperidine-1,4-dicarboxylate]
isoTOP-ABPP ratio (R) at liganded lysine P61289_K12 ([1]; 50 uM, in vitro, sol, 231): 1.4
isoTOP-ABPP ratio (R) at liganded lysine Q13011_K112 ([2]; 50 uM, in vitro): 1.1
isoTOP-ABPP ratio (R) at liganded lysine O43399_K90 ([3]; 50 uM, in vitro): 1.8
isoTOP-ABPP ratio (R) at liganded lysine P61011_K81 ([4]; 50 uM, in vitro): 0.8

Compound: O=C(CCc1coc2cc(F)ccc2c1=O)Oc1ccc([N+](=O)[O-])cc1[N+](=O)[O-] [fragment 36, 2,4-Dinitrophenyl 3-(7-fluoro-4-oxo-4H-chromen-3-yl)propanoate]
isoTOP-ABPP ratio (R) at liganded lysine P61289_K237 ([1]; 50 uM, in vitro, sol, 231): 1.4
isoTOP-ABPP ratio (R) at liganded lysine Q13011_K112 ([2]; 50 uM, in vitro): 1.3
isoTOP-ABPP ratio (R) at liganded lysine O43399_K90 ([3]; 50 uM, in vitro): 1.3
isoTOP-ABPP ratio (R) at liganded lysine P61011_K81 ([4]; 50 uM, in vitro): 1.3

isoTOP-ABPP ratio, lysine P61289_K12 ([1]; 50 uM_231_sol_in vitro): 1.1
isoTOP-ABPP ratio, lysine P61289_K237 ([1]; 50 uM_231_sol_in vitro): 0.9
isoTOP-ABPP ratio, lysine Q13011_K112 ([2]; 50 uM_231_sol_in vitro): 1.0
isoTOP-ABPP ratio, lysine O43399_K90 ([3]; 50 uM_231_sol_in vitro): 2.0
isoTOP-ABPP ratio, lysine P61011_K81 ([4]; 50 uM_231_sol_in vitro): 0.9
Compound: O=C(Oc1c(F)c(F)c(C(F)(F)F)c(F)c1F)c1cc(C(F)(F)F)cc(C(F)(F)F)c1 [fragment 47, 2,3,5,6-Tetrafluoro-4-(trifluoromethyl)phenyl 3,5-bis(trifluoromethyl)benzoate]

isoTOP-ABPP ratio, lysine P61289_K12 ([1]; 100 uM_231_sol_in vitro): 0.8
isoTOP-ABPP ratio, lysine P61289_K237 ([1]; 100 uM_231_sol_in vitro): 0.8
isoTOP-ABPP ratio, lysine Q13011_K112 ([2]; 100 uM_231_sol_in vitro): 1.1
isoTOP-ABPP ratio, lysine O43399_K90 ([3]; 100 uM_231_sol_in vitro): 2.9
isoTOP-ABPP ratio, lysine P61011_K81 ([4]; 100 uM_231_sol_in vitro): 1.0
Compound: COC(=O)NC(=NC(=O)OCC1c2ccccc2-c2ccccc21)n1cccn1 [fragment 49, N-Methoxycarbonyl-N′-9-fluorenylmethoxycarbonyl-pyrazole-1-carboxamidine]
